Test results from BindingDB's records for doi:10.1021/jm990200p (Synaptic Pharmaceutical, 1999).

Assay: In vitro binding affinity against Alpha-1A adrenergic receptor in isolated prostate tissue of dog

CCC1=C(C(N)=O)C(c2ccc(F)c(F)c2)N(C(=O)NCCCN2CCC(C(=O)OC)(c3ccccc3)CC2)C(=O)N1 (stereo unspecified) [1-(3-{[5-Carbamoyl-6-(3,4-difluoro-phenyl)-4-ethyl-2-oxo-3,6-dihydro-2H-pyrimidine-1-carbonyl]-amino}-propyl)-4-phenyl-piperidine-4-carboxylic acid methyl ester]
Ki: 1.3 nM
